Assay results from ChEMBL document CHEMBL1132605 (J Med Chem, 1999).
pIC50: −log10 of the molar value. One block for each compound: values may come before it.

How the values were obtained:
Dihydrofolate reductase [1] = target: T1, Dihydrofolate reductase (Pneumocystis carinii, UniProt P16184)
T1 sequence (P16184 whole entry): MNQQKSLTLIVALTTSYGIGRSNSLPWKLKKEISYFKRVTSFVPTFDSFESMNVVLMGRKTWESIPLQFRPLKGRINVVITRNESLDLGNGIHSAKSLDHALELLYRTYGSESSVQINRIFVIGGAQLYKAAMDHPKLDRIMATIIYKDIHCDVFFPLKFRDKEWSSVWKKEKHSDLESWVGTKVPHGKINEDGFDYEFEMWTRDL
Description: The ability to inhibit Pneumocystis carinii Dihydrofolate reductase was tested

Dihydrofolate reductase [2] = target: T2, Dihydrofolate reductase (Rattus norvegicus, UniProt Q920D2)
T2 sequence (Q920D2 whole entry): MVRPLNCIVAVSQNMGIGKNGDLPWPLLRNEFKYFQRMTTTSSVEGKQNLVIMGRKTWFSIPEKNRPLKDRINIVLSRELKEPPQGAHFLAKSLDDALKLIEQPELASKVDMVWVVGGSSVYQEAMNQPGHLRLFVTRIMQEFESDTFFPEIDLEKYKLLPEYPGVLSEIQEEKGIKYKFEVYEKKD
Description: The ability to inhibit rat liver Dihydrofolate reductase was tested

[3] = target: T3, Bifunctional dihydrofolate reductase-thymidylate synthase (Toxoplasma gondii, UniProt Q07422)
T3 sequence (Q07422 whole entry): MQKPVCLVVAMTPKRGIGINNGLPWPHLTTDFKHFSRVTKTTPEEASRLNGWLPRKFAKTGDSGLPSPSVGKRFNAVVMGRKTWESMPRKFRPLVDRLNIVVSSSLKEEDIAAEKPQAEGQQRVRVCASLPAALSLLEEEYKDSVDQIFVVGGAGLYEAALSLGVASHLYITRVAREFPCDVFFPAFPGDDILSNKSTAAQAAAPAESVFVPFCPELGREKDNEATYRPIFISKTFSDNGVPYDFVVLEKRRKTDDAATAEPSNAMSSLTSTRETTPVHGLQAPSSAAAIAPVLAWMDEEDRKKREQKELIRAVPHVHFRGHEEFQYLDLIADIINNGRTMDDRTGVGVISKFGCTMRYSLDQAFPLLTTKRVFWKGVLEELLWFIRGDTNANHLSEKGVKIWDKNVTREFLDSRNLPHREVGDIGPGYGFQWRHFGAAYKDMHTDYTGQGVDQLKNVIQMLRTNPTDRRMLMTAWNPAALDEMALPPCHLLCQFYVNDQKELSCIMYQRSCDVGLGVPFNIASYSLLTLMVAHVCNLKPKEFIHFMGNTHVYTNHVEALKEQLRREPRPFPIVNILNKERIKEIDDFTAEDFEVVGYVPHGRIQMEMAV
Description: The ability to inhibit Toxoplasma gondii Dihydrofolate reductase was tested

[4] = Ratio of the inhibitory concentrations against [3H]-uracil incorporation into nuclear DNA and Toxoplasma gondii (Tg) DHFR; IC50 ([3H]uracil incorporation)/IC50 (Tg); format: functional
[5] = The ability to inhibit [3H]- uracil incorporation by Toxoplasma gondii in cultures of HEL cells was tested; format: functional, cell-based, Homo sapiens
HCT-116 = experiment: Compound was tested for the growth inhibition of HCT116 colon tumor cell line; format: functional, cell-based; conditions: Homo sapiens
EKVX = experiment: Compound was tested for the growth inhibition of EKVX lung tumor cell line; format: functional, cell-based; conditions: Homo sapiens
LOX IMVI = experiment: Compound was tested for the growth inhibition of LOX IMVI melanoma tumor cell line; format: functional, cell-based; conditions: Homo sapiens
NCI-H460 = experiment: Compound was tested for the growth inhibition of NCI-H460 lung tumor cell line; format: functional, cell-based; conditions: Homo sapiens
A549 = experiment: Compound was tested for the growth inhibition of A549 lung tumor cell line; format: functional, cell-based; conditions: Homo sapiens
T47D = experiment: Compound was tested for the growth inhibition of T-47D breast tumor cell line; format: functional, cell-based; conditions: Homo sapiens
A498 = experiment: Compound was tested for the growth inhibition of A498 renal tumor cell line; format: functional, cell-based; conditions: Homo sapiens
OVCAR-3 = experiment: Compound was tested for the growth inhibition of OVCAR-3 ovarian tumor cell line; format: functional, cell-based; conditions: Homo sapiens
SW-620 = experiment: Compound was tested for the growth inhibition of SW-620 colon tumor cell line; format: functional, cell-based; conditions: Homo sapiens
BT-549 = experiment: Compound was tested for the growth inhibition of BT-549 breast carcinoma cell line; format: functional, cell-based; conditions: Homo sapiens
PC-3 = experiment: Compound was tested for the growth inhibition of PC3 prostate tumor cell line; format: functional, cell-based; conditions: Homo sapiens
UACC-257 = experiment: Compound was tested for the growth inhibition of UACC-257 melanoma tumor cell line; format: functional, cell-based; conditions: Homo sapiens
OVCAR-8 = experiment: Compound was tested for the growth inhibition of OVCAR-8 ovarian tumor cell line; format: functional, cell-based; conditions: Homo sapiens
786-0 = experiment: Compound was tested for the growth inhibition of 786-0 renal tumor cell line; format: functional, cell-based; conditions: Homo sapiens
MDA-N = experiment: Compound was tested for the growth inhibition of MDA-N breast carcinoma cell line; format: functional, cell-based; conditions: Homo sapiens
NCI-H226 = experiment: Compound was tested for the growth inhibition of NCI-H226 lung tumor cell line; format: functional, cell-based; conditions: Homo sapiens
COLO 205 = experiment: Compound was tested for the growth inhibition of COLO 205 colon tumor cell line; format: functional, cell-based; conditions: Homo sapiens
SN12C = experiment: Compound was tested for the growth inhibition of SN12C renal tumor cell line; format: functional, cell-based; conditions: Homo sapiens
SF-539 = experiment: Compound was tested for the growth inhibition of SF-539 CNS tumor cell line; format: functional, cell-based; conditions: Homo sapiens
KM12 = experiment: Compound was tested for the growth inhibition of KM12 colon tumor cell line; format: functional, cell-based; conditions: Homo sapiens
SK-MEL-5 = experiment: Compound was tested for the growth inhibition of SK-MEL-5 melanoma tumor cell line; format: functional, cell-based; conditions: Homo sapiens
SF-295 = experiment: Compound was tested for the growth inhibition of SF-295 CNS tumor cell line; format: functional, cell-based; conditions: Homo sapiens
SF-268 = experiment: Compound was tested for the growth inhibition of SF-268 CNS tumor cell line; format: functional, cell-based; conditions: Homo sapiens
IGROV-1 = experiment: Compound was tested for the growth inhibition of IGROV1 ovarian tumor cell line; format: functional, cell-based; conditions: Homo sapiens
ACHN = experiment: Compound was tested for the growth inhibition of ACHN renal tumor cell line; format: functional, cell-based; conditions: Homo sapiens

pIC50 (Dihydrofolate reductase [1]): 6.54
pIC50 (Dihydrofolate reductase [2]): 6.74
SMILES: Nc1nc(N)c2c(n1)CCC(Cc1ccccc1)C2 (stereo not given)
Ratio [4]: 7.8
pIC50 [3]: 7.49
pIC50 [5]: 6.60

pIC50 (Dihydrofolate reductase [1]): 6.06
pIC50 (Dihydrofolate reductase [2]): 6.57
SMILES: Nc1nc(N)c2c(n1)CCC(CC1CCCO1)C2 (stereo not given)
pIC50 [3]: 7.40

pIC50 (HCT-116): > 8.00
pIC50 (Dihydrofolate reductase [1]): 7.24
pIC50 (NCI-H460): > 8.00
pIC50 (Dihydrofolate reductase [2]): 7.47
pIC50 (A549): > 8.00
pIC50 (T47D): 4.70
pIC50 (OVCAR-3): 4.82
pIC50 (SW-620): 6.49
pIC50 (BT-549): 6.48
pIC50 (PC-3): 7.46
pIC50 (OVCAR-8): 4.68
pIC50 (786-0): 7.22
pIC50 (NCI-H226): 4.51
pIC50 (COLO 205): 5.00
SMILES: COc1ccc(OC)c(CC2CCc3nc(N)nc(N)c3C2)c1 (stereo not given)
pIC50 (EKVX): 4.80
pIC50 (LOX IMVI): 7.22
pIC50 [3]: 7.68
pIC50 (A498): 5.00
pIC50 (UACC-257): 5.08
pIC50 (MDA-N): > 8.00
pIC50 (SN12C): 4.82
pIC50 (SF-539): 6.37
pIC50 (KM12): 5.57

pIC50 (Dihydrofolate reductase [1]): 6.35
pIC50 (Dihydrofolate reductase [2]): 6.92
SMILES: COc1ccccc1CC1CCc2nc(N)nc(N)c2C1 (stereo not given)
pIC50 [3]: 7.85

pIC50 (Dihydrofolate reductase [1]): 4.82
pIC50 (Dihydrofolate reductase [2]): 5.14
SMILES: Nc1nc(N)c2c(n1)CCC(Cc1ccc(Cl)c(Cl)c1)C2 (stereo not given)
pIC50 [3]: 5.59

pIC50 (Dihydrofolate reductase [1]): 6.47
pIC50 (Dihydrofolate reductase [2]): 6.96
SMILES: Cc1cccc(CC2CCc3nc(N)nc(N)c3C2)c1 (stereo not given)
pIC50 [3]: 7.44

pIC50 (Dihydrofolate reductase [1]): 5.16
pIC50 (Dihydrofolate reductase [2]): 5.52
SMILES: CCC1CCc2nc(N)nc(N)c2C1 (stereo not given)
pIC50 [3]: 5.96

pIC50 (Dihydrofolate reductase [1]): 6.36
pIC50 (Dihydrofolate reductase [2]): 7.11
SMILES: COc1ccc(CC2CCc3nc(N)nc(N)c3C2)cc1 (stereo not given)
pIC50 [3]: 7.30

pIC50 (Dihydrofolate reductase [1]): 5.66
pIC50 (Dihydrofolate reductase [2]): 5.72
SMILES: Nc1nc(N)c2c(n1)CCC(c1ccccc1)C2 (stereo not given)
pIC50 [3]: 5.89

pIC50 (Dihydrofolate reductase [1]): 6.74
pIC50 (Dihydrofolate reductase [2]): 7.19
SMILES: CC(C)(C)C1CCc2nc(N)nc(N)c2C1 (stereo not given)
pIC50 [3]: 7.74

pIC50 (Dihydrofolate reductase [1]): 6.57
pIC50 (Dihydrofolate reductase [2]): 6.96
SMILES: COc1cccc(CC2CCc3nc(N)nc(N)c3C2)c1 (stereo not given)
pIC50 [3]: 7.68

pIC50 (Dihydrofolate reductase [1]): 6.60
pIC50 (Dihydrofolate reductase [2]): 6.96
SMILES: Cc1ccccc1CC1CCc2nc(N)nc(N)c2C1 (stereo not given)
pIC50 [3]: 7.64

pIC50 (HCT-116): 7.40
pIC50 (Dihydrofolate reductase [1]): 7.00
pIC50 (NCI-H460): 7.40
pIC50 (Dihydrofolate reductase [2]): 7.20
pIC50 (A549): 7.22
pIC50 (T47D): 4.72
pIC50 (SW-620): 6.00
pIC50 (BT-549): 6.57
pIC50 (PC-3): 7.14
pIC50 (OVCAR-8): 4.68
pIC50 (786-0): 7.22
pIC50 (ACHN): 6.62
pIC50 (NCI-H226): 4.92
pIC50 (COLO 205): 5.42
SMILES: COc1ccc(CC2CCc3nc(N)nc(N)c3C2)cc1OC (stereo not given)
pIC50 (EKVX): 5.24
pIC50 (LOX IMVI): 7.15
Ratio [4]: 3.5
pIC50 [3]: 7.64
pIC50 (A498): 4.62
pIC50 (SF-295): 6.60
pIC50 (SF-268): 6.52
pIC50 (IGROV-1): 6.89
pIC50 (UACC-257): 4.82
pIC50 (MDA-N): 7.29
pIC50 [5]: 7.09
pIC50 (SN12C): 4.64
pIC50 (KM12): 5.89

More lines, now with the values behind:

SMILES: COc1cc(CN2CCc3nc(N)nc(N)c3C2)cc(OC)c1OC
pIC50 (Dihydrofolate reductase [1]): 5.16
pIC50 (Dihydrofolate reductase [2]): 5.66
pIC50 [3]: 6.70

SMILES: Nc1nc(N)c2c(n1)CCC(Cc1ccsc1)C2 (stereo not given)
pIC50 (Dihydrofolate reductase [1]): 5.77
pIC50 (Dihydrofolate reductase [2]): 6.89
pIC50 [3]: 7.31

SMILES: CCc1nc(N)nc(N)c1-c1ccc(Cl)cc1 [PYRIMETHAMINE]
pIC50 [5]: 6.17

SMILES: Nc1nc(N)c2c(n1)CCC(Cc1cccc(C(F)(F)F)c1)C2 (stereo not given)
pIC50 (Dihydrofolate reductase [1]): 6.40
pIC50 (Dihydrofolate reductase [2]): 6.72
pIC50 [3]: 6.85

SMILES: Nc1nc(N)c2c(n1)CCC(Cc1cccs1)C2 (stereo not given)
pIC50 (Dihydrofolate reductase [1]): 6.68
pIC50 (Dihydrofolate reductase [2]): 7.10
pIC50 [3]: 7.21

SMILES: COc1ccc(OC)c(CN2CCc3nc(N)nc(N)c3C2)c1
pIC50 (Dihydrofolate reductase [1]): 5.48
pIC50 (Dihydrofolate reductase [2]): 5.85
pIC50 [3]: 6.52

SMILES: Nc1nc(N)c2c(n1)CCC(Cc1cccc(OC(F)(F)F)c1)C2 (stereo not given)
Ratio [4]: 9.3
pIC50 (Dihydrofolate reductase [1]): 7.00
pIC50 (Dihydrofolate reductase [2]): 7.10
pIC50 [3]: 7.85
pIC50 [5]: 6.89

SMILES: Nc1nc(N)c2c(n1)CCC(Cc1ccc(OC(F)(F)F)cc1)C2 (stereo not given)
pIC50 (Dihydrofolate reductase [1]): 6.24
pIC50 (Dihydrofolate reductase [2]): 6.77
pIC50 [3]: 7.14

SMILES: COc1cc(CC2CCc3nc(N)nc(N)c3C2)cc(OC)c1OC (stereo not given)
pIC50 (HCT-116): 7.30
pIC50 (EKVX): 6.15
pIC50 (LOX IMVI): 7.10
Ratio [4]: 8.8
pIC50 (SK-MEL-5): 7.10
pIC50 (Dihydrofolate reductase [1]): 7.04
pIC50 (NCI-H460): 7.22
pIC50 (Dihydrofolate reductase [2]): 7.42
pIC50 (A549): 6.11
pIC50 [3]: 7.62
pIC50 (T47D): 4.66
pIC50 (A498): 4.68
pIC50 (OVCAR-3): 5.01
pIC50 (SF-295): 6.60
pIC50 (SF-268): 6.72
pIC50 (BT-549): 4.96
pIC50 (PC-3): 6.72
pIC50 (IGROV-1): 6.72
pIC50 (UACC-257): 4.57
pIC50 (786-0): 7.22
pIC50 (ACHN): 6.57
pIC50 (COLO 205): 5.80
pIC50 [5]: 6.68
pIC50 (SN12C): 4.44
pIC50 (SF-539): 6.00
pIC50 (KM12): 5.89
